This assay deals with L1210 leukemia ip in BDF1 mice, survival T/C. Briefly: NCI In Vivo Anticancer Drug Screen. Data for tumor model L1210 Leukemia (intraperitoneal) in B6D2F1 (BDF1) mice. The settings on record: endpoint: mean survival time, higher = longer survival. The method in brief:
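Mice bearing the transplanted tumor received compound or vehicle. Survival of the treated group was divided by that of the vehicle-treated control group to give the ratio.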

Where [1] appears, read: dose: 50.0 mg/kg/injection, schedule: Q01DX009 (ip), vehicle: saline.
[2] abbreviates: dose: 100.0 mg/kg/injection, schedule: Q01DX009 (ip), vehicle: saline.
The mark [3] stands for this setting: dose: 200.0 mg/kg/injection, schedule: Q01DX009 (ip), vehicle: saline.
[4] abbreviates: dose: 100.0 mg/kg/injection, schedule: Q01DX009 (ip), vehicle: Klucel (hydroxypropylcellulose) (HPC).
Setting [5] is: dose: 100.0 mg/kg/injection, schedule: Q04DX003 (ip), vehicle: Klucel (hydroxypropylcellulose) (HPC).
[6] abbreviates: dose: 200.0 mg/kg/injection, schedule: Q01DX009 (ip), vehicle: Klucel (hydroxypropylcellulose) (HPC).
Setting [7] is: dose: 200.0 mg/kg/injection, schedule: Q04DX003 (ip), vehicle: Klucel (hydroxypropylcellulose) (HPC).
The mark [8] stands for this setting: dose: 100.0 mg/kg/injection, schedule: Q04DX003 (ip), vehicle: saline.
The mark [9] stands for this setting: dose: 100.0 mg/kg/injection, schedule: Q04DX002 (ip), vehicle: Klucel (hydroxypropylcellulose) (HPC).
[10] abbreviates: dose: 200.0 mg/kg/injection, schedule: Q04DX002 (ip), vehicle: Klucel (hydroxypropylcellulose) (HPC).
Setting [11] is: dose: 400.0 mg/kg/injection, schedule: Q04DX002 (ip), vehicle: Klucel (hydroxypropylcellulose) (HPC).
The mark [12] stands for this setting: dose: 400.0 mg/kg/injection, schedule: Q04DX003 (ip), vehicle: Klucel (hydroxypropylcellulose) (HPC).
Setting [13] is: dose: 100.0 mg/kg/injection, schedule: Q01DX001 (ip), vehicle: carboxymethylcellulose (CMC).
The mark [14] stands for this setting: dose: 200.0 mg/kg/injection, schedule: Q01DX001 (ip), vehicle: carboxymethylcellulose (CMC).
Setting [15] is: dose: 400.0 mg/kg/injection, schedule: Q01DX001 (ip), vehicle: carboxymethylcellulose (CMC).
Where [16] appears, read: dose: 25.0 mg/kg/injection, schedule: Q01DX Z (ip), vehicle: carboxymethylcellulose (CMC).
Setting [17] is: dose: 50.0 mg/kg/injection, schedule: Q01DX Z (ip), vehicle: carboxymethylcellulose (CMC).

Values joined by “and” are separate entries in the source; they are usually repeats but may differ in a detail not shown here. Identical values can stand only once. Toxic doses and inconclusive results are not listed.

On to `CC(NC(=O)C(N)CSC(c1ccccc1)(c1ccccc1)c1ccccc1)C(=O)O` (stereo not drawn), for which the T/C by setting is: (dose: 25.0 mg/kg/injection, schedule: Q01DX009 (ip), vehicle: other) 121 % of control; (dose: 25.0 mg/kg/injection, schedule: Q01DX009 (ip), vehicle: saline) 114 % of control; under setting [1], 122 % of control; under setting [2], 152 % of control; (dose: 200.0 mg/kg/injection, schedule: Q01DX009 (ip), vehicle: other) 88 % of control; under setting [3], 111 % of control.
For `c1ccc(CNCc2ccccc2)cc1`, the T/C was 93 % of control (dose: 50.0 mg/kg/injection, schedule: Q01DX009 (ip), vehicle: Klucel (hydroxypropylcellulose) (HPC)); 93 % of control under setting [4]; 95 % of control under setting [5]; 100 % of control under setting [6]; 95 % of control under setting [7].
On to `O=C(CCN1CCCCCCC1)c1cccc([N+](=O)[O-])c1`, for which the T/C is, setting by setting: (dose: 25.0 mg/kg/injection, schedule: Q04DX003 (ip), vehicle: saline) 97 % of control; under setting [1], 101 % of control; (dose: 50.0 mg/kg/injection, schedule: Q04DX003 (ip), vehicle: saline) 104 % of control; under setting [2], 91 % of control; under setting [8], 97 % of control and 105 % of control.
In the case of `COc1cc(Cn2cccc2C=O)c([N+](=O)[O-])cc1OC`, the T/C (dose: 25.0 mg/kg/injection, schedule: Q04DX002 (ip), vehicle: Klucel (hydroxypropylcellulose) (HPC)) was 89 % of control; the T/C (dose: 50.0 mg/kg/injection, schedule: Q04DX002 (ip), vehicle: Klucel (hydroxypropylcellulose) (HPC)) is 101 % of control; the T/C under setting [9] is 86 % of control.
With `O=C(O)c1ccccc1C(=O)c1ccc(-c2ccccc2)cc1`, the T/C by setting is: (dose: 100.0 mg/kg/injection, schedule: Q01DX001 (ip), vehicle: Klucel (hydroxypropylcellulose) (HPC)) 110 % of control; (dose: 200.0 mg/kg/injection, schedule: Q01DX001 (ip), vehicle: Klucel (hydroxypropylcellulose) (HPC)) 102 % of control; (dose: 400.0 mg/kg/injection, schedule: Q01DX001 (ip), vehicle: Klucel (hydroxypropylcellulose) (HPC)) 100 % of control.
As for `CCOc1ccc(CCOC(C)=O)cc1`, the T/C reads like this: under setting [9], 97 % of control; under setting [10], 101 % of control; under setting [11], 101 % of control.
Regarding `CC1(C)CCC(=NNC(N)=S)CC1`, the T/C by setting is: (dose: 5.0 mg/kg/injection, schedule: Q01DX001 (ip), vehicle: carboxymethylcellulose (CMC)) 101 % of control; (dose: 10.0 mg/kg/injection, schedule: Q01DX001 (ip), vehicle: carboxymethylcellulose (CMC)) 97 % of control; (dose: 20.0 mg/kg/injection, schedule: Q01DX001 (ip), vehicle: carboxymethylcellulose (CMC)) 92 % of control; (dose: 40.0 mg/kg/injection, schedule: Q01DX001 (ip), vehicle: carboxymethylcellulose (CMC)) 92 % of control.
As for `CCC1(CC)C(=O)NC(=NCCCC(N)C(=O)O)NC1=O` (stereo not drawn), the T/C runs as follows: (dose: 75.0 mg/kg/injection, schedule: Q01DX001 (ip), vehicle: carboxymethylcellulose (CMC)) 106 % of control; (dose: 150.0 mg/kg/injection, schedule: Q01DX001 (ip), vehicle: carboxymethylcellulose (CMC)) 109 % of control.
Consider `COc1ccc(C2=CN(S(=O)(=O)c3ccc(C)cc3)CCc3ccccc32)cc1`, for which the T/C by setting is: under setting [5], 96 % of control; under setting [7], 102 % of control; under setting [12], 92 % of control.
With `CC(=O)CCCN(CCO)CCO`, the T/C under setting [2] is 88 % of control; the T/C under setting [8] was 96 % of control; the T/C under setting [3] is 92 % of control; the T/C (dose: 200.0 mg/kg/injection, schedule: Q04DX003 (ip), vehicle: saline) was 96 % of control; the T/C (dose: 400.0 mg/kg/injection, schedule: Q01DX009 (ip), vehicle: saline) was 96 % of control; the T/C (dose: 400.0 mg/kg/injection, schedule: Q04DX003 (ip), vehicle: saline) is 102 % of control.
Take `Cc1ccc(S(=O)(=O)Nc2ccccc2N=Cc2ccc(N(CCCl)CCCl)cc2C)cc1`: the T/C was 101 % of control under setting [13], 103 % of control under setting [14] and 86 % of control under setting [15].
Take `C=CCN(CC=C)C(=O)c1cc(Cl)ccc1Cl`: the T/C reads like this: (dose: 100.0 mg/kg/injection, schedule: Q04DX002 (ip), vehicle: saline with Tween-80) 97 % of control; (dose: 200.0 mg/kg/injection, schedule: Q04DX002 (ip), vehicle: saline with Tween-80) 103 % of control; (dose: 400.0 mg/kg/injection, schedule: Q04DX002 (ip), vehicle: saline with Tween-80) 110 % of control.
Consider `Cc1[nH]c2c(C)ccc(C)c2c(=O)c1Br`, for which the T/C is 91 % of control (dose: 100.0 mg/kg/injection, schedule: Q01DX001 (ip), vehicle: other); 94 % of control (dose: 200.0 mg/kg/injection, schedule: Q01DX001 (ip), vehicle: other); 86 % of control (dose: 400.0 mg/kg/injection, schedule: Q01DX001 (ip), vehicle: other).
As for `CCCCCCCCP(=O)(N1CC1)N1CC1`, the T/C is, setting by setting: (dose: 5.0 mg/kg/injection, schedule: Q01DX Z (ip), vehicle: carboxymethylcellulose (CMC)) 107 % of control; (dose: 6.25 mg/kg/injection, schedule: Q01DX Z (ip), vehicle: carboxymethylcellulose (CMC)) 98 % of control; (dose: 10.0 mg/kg/injection, schedule: Q01DX Z (ip), vehicle: carboxymethylcellulose (CMC)) 102 % of control; (dose: 12.5 mg/kg/injection, schedule: Q01DX Z (ip), vehicle: carboxymethylcellulose (CMC)) 110 % of control; (dose: 20.0 mg/kg/injection, schedule: Q01DX Z (ip), vehicle: carboxymethylcellulose (CMC)) 110 % of control; under setting [16], 113 % of control. The T/C runs as follows: (dose: 40.0 mg/kg/injection, schedule: Q01DX Z (ip), vehicle: carboxymethylcellulose (CMC)) 117 % of control; under setting [17], 120 % of control.
As to `COc1ccc(NC(=O)NCc2ccc(C)c(C)c2)cc1`, the T/C is 118 % of control under setting [9], 96 % of control under setting [10] and 104 % of control under setting [11].
With `O=c1c2ccc(Cl)cc2[nH]c(=S)n1-c1ccc(Cl)cc1`, the T/C runs as follows: (dose: 100.0 mg/kg/injection, schedule: Q01DX009 (ip), vehicle: saline with Tween-80) 89 % of control; (dose: 200.0 mg/kg/injection, schedule: Q01DX009 (ip), vehicle: saline with Tween-80) 89 % of control; (dose: 400.0 mg/kg/injection, schedule: Q01DX009 (ip), vehicle: saline with Tween-80) 87 % of control.
Turning to `Cc1ccc(C(C)C)c(Oc2cc(C)ccc2C(C)C)c1`, the T/C was 98 % of control under setting [4]; 97 % of control under setting [5]; 102 % of control under setting [6]; 93 % of control under setting [7]; 108 % of control (dose: 400.0 mg/kg/injection, schedule: Q01DX009 (ip), vehicle: Klucel (hydroxypropylcellulose) (HPC)); 93 % of control under setting [12].
With `CNc1ccc(/C=C2\C=Cc3ccccc32)cc1`, the T/C is, setting by setting: (dose: 12.0 mg/kg/injection, schedule: Q01DX Z (ip), vehicle: carboxymethylcellulose (CMC)) 95 % of control; under setting [16], 98 % of control; (dose: 50.0 mg/kg/injection, schedule: Q01DX001 (ip), vehicle: carboxymethylcellulose (CMC)) 101 % of control; under setting [17], 120 % of control; under setting [13], 101 % of control; (dose: 100.0 mg/kg/injection, schedule: Q01DX Z (ip), vehicle: carboxymethylcellulose (CMC)) 93 % of control. In addition, the T/C was 108 % of control under setting [14]; 98 % of control (dose: 200.0 mg/kg/injection, schedule: Q01DX Z (ip), vehicle: carboxymethylcellulose (CMC)); 100 % of control under setting [15].
